The values below are quoted from earlier work in patent US7166468B2, “Production of the lantibiotic cinnamycin with genes isolated from Streptomyces cinnamoneus” (Plant Bioscience Limited, priority 2001, dated 2007).

Ends that are not written are not given here.

The test system of this data set is B. subtilis. The settings on record: stated as known activity.

In the case of “cinnamycin (CRQSCSFGPFTFVCDGNTK; thioether (positions not given here); not fully specified (bridges); also: lanthionine bridges, positions not given here)”, the “Known activity of cinnamycin: inhibition of the growth of B. subtilis strains” value was “inhibition of the growth of the B. subtilis strains”.
